# From patent US20140037685A1 (priority 2012, published 2014)
# Entries after “also recorded” stand apart in the source; their conditions may differ.
# Columns and labels:
# [1] = test system: Nlrp3; test: IL-1β release into macrophage supernatants by ELISA; type: cell-based, mouse; details: for Effect of inhibitor on IL-1β secretion/release by all inducers tested: inducers alum, LLOMe, ATP, nigericin, 40 μM Boc-D-CMK or 100 μM CA-074-Me
# Procedure: (§1) FIG. 1A-1B. Alum and LLOMe are poor inducers of inflammasome-associated cytokines. […] Macrophages were then exposed to increasing concentrations of alum, LLOMe, ATP, or nigericin for 4 hours, or alum for 6 hours, in the presence or absence of the 40 μM Boc-D-CMK or 100 μM CA-074-Me. IL-1β release was assessed by ELISA (A), and cell death was determined by CytotoxOne LDH activity assay (B) from supernatants. All PI measurements were taken in triplicate from representative experiment. FIG. 2. Alum and LLOMe cause depletion of caspase-1 and NLR-associated cytokines. […] Lysates were probed for pro-caspase-1, IL-18, and IL-1β, and supernatants were probed for IL-1β by immunoblotting. Data is representative of 3 experiments.
# FIG. 6A-6D. LPS triggers strong production of Th1 and Th2-associated IgG subtypes. IgG1 (A) and IgG2c (B) production in C57BL/6 mice 3 weeks after subcutaneous challenge with increasing amounts of LPS. (C) A combination of LPS and ATP triggers a strong IL-1β response in vitro and in vivo. Primary C57BL/6 macrophages were treated with 250 ng/ml LPS or PBS for 2 hours, followed by to 5 mM ATP in the presence or absence of the 40 μM Boc-D-CMK. IL-1β release was assessed by ELISA from supernatants. […] IL-1β production in the intraperitoneal lavage was determined by ELISA 30 min after ATP/PBS challenge.
# Cell death assays and ELISAs. Necrosis was assessed by two methods: LDH release assays and propidium iodide (PI) exclusion. […] Fluorescence was measured using a Victor 2 plate reader from Perkin Elmer. LDH release was determined using the CytotoxOne kit from Promega, according to the manufacturer's instructions. […] The enzymatic assay was developed until signal was obtained from a positive control (300 μM hydrogen peroxide) and the reaction was stopped and measured on a Victor 2 plate reader. IL-1β Ready-Set-Go ELISA kits were purchased from eBioscience and were performed according to manufacturer's recommendations. IL-1β concentration was determined at 1:1 and 1:10 to ensure linear range. […] ELISAs were read on a Victor 2 plate reader from Perkin Elmer. […]
# [2] = test system: bone marrow-derived murine macrophages; test: Necrotic cell death (LDH release / propidium iodide exclusion) in macrophages; type: cell-based, mouse
# Procedure: as §1
# Cell death assays and ELISAs. Necrosis was assessed by two methods: LDH release assays and propidium iodide (PI) exclusion. PI exclusion assays were performed in a 96-well flat-bottom plate using phenol-red-free DMEM and added to wells to a final concentration 30 μM 10-min before the specified time point. Fluorescence was measured using a Victor 2 plate reader from Perkin Elmer. LDH release was determined using the CytotoxOne kit from Promega, according to the manufacturer's instructions. […] The enzymatic assay was developed until signal was obtained from a positive control (300 μM hydrogen peroxide) and the reaction was stopped and measured on a Victor 2 plate reader. IL-1β Ready-Set-Go ELISA kits were purchased from eBioscience and were performed according to manufacturer's recommendations. IL-1β concentration was determined at 1:1 and 1:10 to ensure linear range. […] ELISAs were read on a Victor 2 plate reader from Perkin Elmer.
# Lysosome-disrupting agents induce potent cell death but poor IL-1β release. […] Towards this, bone marrow-derived murine macrophages were challenged with both lysosome disrupting and pyroptosis-inducing agents and measured the amount of IL-1β and LDH released into the supernatant as complementary read-outs for Nlrp3 activation. […]
# [3] = test system: pro-caspase-1, IL-18, and IL-1β; type: cell-based, mouse
# [4] = test system: C57BL/6 macrophages; test: Increasing CA-074-Me concentrations in LLOMe- or nigericin-challenged macrophages (PI exclusion, immunoblot); type: cell-based, mouse
# [5] = test system: macrophages; test: Confocal microscopy of lysosome rupture (fluorescent dextran) and plasma membrane integrity; type: cell-based, mouse
# Procedure: (§2) FIG. 5A-5C. Lysosome rupture precedes cell death by alum and LLOMe, but not pyroptosis inducers. (A) Confocal microscopy of lysosome rupture in macrophages treated with […], 2.5 mM LLOMe, or 15 μM nigericin in the absence or presence of 100 μM CA-074-Me. The cells were stained with Hoechst (blue), 20 MW FITC-Dextran (green), CellMask Orange (red), TO-PRO-3 (white). 2D-fluorescent intensity plots of FITC-dextran staining of representative cells derived from alum, LLOMe, and nigericin-treated cells. Flow cytometry analysis of LLOMe and LT-treated cells. BALB/c-derived macrophages were exposed to 2.5 mM LLOMe (B) or 500 ng/ml LT (C) and lysosome and membrane integrity were measured using LysoTracker and PI at different time points using flow cytometry.
# Cathepsin-dependent lysosome rupture correlates with degradation of inflammatory proteins. […] Lysosome-disrupting agents caused caspase-1-independent cell death and broad protein degradation, while pyroptosis inducers caused caspase-1-dependent cell death and targeted IL-1β secretion. In order to directly investigate the role of lysosome rupture in Nlrp3 activation, two complementary methods were used to analyze lysosome integrity in macrophages challenged with both lysosome-destabilizing agents and potassium-efflux inducers. First, lysosomal integrity was measured by labeling vesicles in the endolysosomal pathway with fluorescent dextran. […] Intriguingly, no plasma membrane impairment (indicative of necrotic cell death) was detectable at this time point, but was observed only 6 hours post alum exposure (FIG. 5A). […] LLOMe destabilized lysosomes within 30 min, without impairment of plasma membranes. A loss of plasma membrane integrity was observed only after 60 min of LLOMe exposure, resulting in dextran release from these cells (FIG. 5A).
# [6] = test system: BALB/c-derived macrophages; test: Flow cytometry of lysosome and membrane integrity (LysoTracker and PI); type: cell-based, mouse
# Procedure: as §2
# To quantify these findings, lysosomal integrity was also analyzed by flow cytometry with the lysosomal pH-indicator LysoTracker and the vital stain propidium iodide (FIG. 5B and C). […] Intriguingly, protein degradation was concurrent with a loss of lysosome integrity 30 to 45 min after LLOMe exposure, and 4-6 hours after alum exposure (FIGS. 5A and 5B).
# [7] = test system: C57BL/6 macrophages; test: 2D-DIGE of the cellular proteome of treated macrophages; type: cell-based, mouse; details: LPS-primed; 2.5 mM LLOMe or nigericin for 90 minutes
# Source text: FIG. 10. 2D-DIGE gel of proteins isolated from untreated, nigericin- and LLOMe-treated macrophages. […] Protein lysates from control, nigericin, and LLOMe treated cells were isolated, and subsequently labeled with Cy2, Cy3 and Cy5, respectively, and separated on a 2D-DIGE gel.
# Broad protein degradation mediated by LLOMe—As lysosomal proteases are highly promiscuous, it was reasoned that alum- and LL-mediated lysosomal release of proteolytic proteins may not just degrade Nlrp3-associated proteins, but may also trigger degradation of a broad range of cytosolic proteins, and might go beyond the degradation of inflammatory proteins reported here. To examine effects of LLOMe on the cellular proteome, macrophages were challenged with these compounds and generated lysates. 2D-DIGE was used to determine the extent of damage inflicted in macrophages exposed to the lysosome-disrupting agent, LLOMe. […] These findings further highlight the different impact of lysosome-destabilizing agents and pyroptosis inducers on the cellular proteome on a macro-level.
# [8] = test system: Nlrp3; test: IL-1β and LDH in intraperitoneal lavage after i.p. challenge; type: in vivo, mouse; details: C57BL/6 mice, agent injected intraperitoneally (LPS: high concentrations), no ATP
# Procedure: (§3) FIG. 6A-6D. LPS triggers strong production of Th1 and Th2-associated IgG subtypes. IgG1 (A) and IgG2c (B) production in C57BL/6 mice 3 weeks after subcutaneous challenge with increasing amounts of LPS. (C) A combination of LPS and ATP triggers a strong IL-1β response in vitro and in vivo. Primary C57BL/6 macrophages were treated with 250 ng/ml LPS or PBS for 2 hours, followed by to 5 mM ATP in the presence or absence of the 40 μM Boc-D-CMK. IL-1β release was assessed by ELISA from supernatants. (D) C57BL/6 mice were i.p. primed with 1 ug LPS or PBS for 2 hours, followed by i.p. challenge with 100 mM ATP or PBS. IL-1β production in the intraperitoneal lavage was determined by ELISA 30 min after ATP/PBS challenge.
# FIG. 11. Similar in vitro and in vivo profiles of LLOMe and LPS/ATP-treated macrophages. C57BL/6 mice were i.p. primed with 1 μg LPS or PBS for 2 hours, followed by i.p. challenge with 500 μl of PBS containing 100 mM ATP, 2 mM LLOMe, or PBS only. IL-1β production and LDH activity was determined from the intraperitoneal lavage by ELISA 30 min after challenge.
# Prototypical Nlrp3 inducers trigger a strong IL-1β in vivo and production of Th1-specific antibodies in vivo. While the substantial difference in Nlrp3-signalling in vitro is shown, it was further chosen to investigate the ability of lysosome-disrupting agents and pyroptosis inducer to activate Nlrp3 in vivo. […]
# [9] = test system: C57BL/6 mice; test: IgG1 and IgG2c production after immunization of mice; type: in vivo, mouse; details: immunized C57BL/6 mice; LPS 3 weeks after subcutaneous challenge
# Procedure: as §3
# It was sought to determine if this difference correlated with the observed difference in in vivo IL-1β activation. To test this hypothesis, C57BL/6 mice were immunized with alum, LLOMe, and LPS.
# [10] = LPS-primed macrophages, 40 μM Boc-D-CMK, LDH assay
compound,measurement,setting,value
CCCNC(=O)[C@H]1O[C@@H]1C(=O)N[C@H](C(=O)N1CCC[C@H]1C(=O)OC)[C@@H](C)CC [CA-074-Me],Effect of inhibitor on IL-1β secretion/release by all inducers tested,[1],blocked
same,Effect of inhibitor on necrotic cell death mediated by all agents/inducers tested,"[2]; alum, LLOMe, ATP, nigericin, 100 μM CA-074-Me",blocked necrosis
same,Effect of inhibitor on alum and LLOMe-mediated drop/degradation of proinflammatory proteins,[3],prevented the drop; also recorded: blocked
same,Effect of increasing inhibitor concentrations on cell death and drop in inflammatory proteins in LLOMe-treated macrophages,"[4]; 2.5 mM LLOMe, LPS-primed","blocked both, cell death and the drop in inflammatory proteins"
same,Effect of inhibitor (at concentrations that blocked cell death) on release of processed IL-1β by Nlrp3 inducers,"[4]; nigericin (and ATP), LPS-primed",prevented the release of processed IL-1β
same,Effect of inhibitor on lysosomal release of dextran from alum and LLOMe-treated macrophages,[5]; 100 μM CA-074-Me,blocked
"COC(=O)[C@H](CC(C)C)NC(=O)[C@@H](N)CC(C)C [LLOMe, Leu-Leu-OMe]",IL-1β release,"[1]; LPS-primed (250 ng/ml, 2 hours) murine macrophages challenged with the inducer, ELISA of supernatants",only minimal
same,Cellular pro-caspase-1 levels,[3],significant depletion
same,Cytosolic levels of IL-18 and IL-1β,[3],dramatic decrease
same,Mature caspase-1 (p20) indicative of caspase-1 activation,[3],No mature caspase-1 (p20)
same,Processing of pro-caspase-1 (p45) into p10 and p20,[3],substantial depletion of p45 without generating the p20 or p10 subunits
same,Release of mature IL-1β into the supernatant (immunoblot),[3],no mature IL-1β
same,Time at which loss of plasma membrane integrity was observed,[5]; 2.5 mM LLOMe,60 min
same,"Time to destabilized lysosomes, without impairment of plasma membranes",[5]; 2.5 mM LLOMe,≤ 30 min
same,Time to complete loss of lysosome integrity,"[6]; 2.5 mM LLOMe, LysoTracker",≤ 30 min
same,Time at which necrotic cell death was observed,"[6]; 2.5 mM LLOMe, PI",60 to 90 min
same,Time of protein degradation concurrent with loss of lysosome integrity,[6]; after LLOMe exposure,30 to 45 min
same,Degradation of cellular proteins (2D-DIGE),[7],broad degradation
same,IL-1β release in vivo,[8],poor release
same,LDH release in vivo,[8],significant release
same,IgG1 / Th2 response,[9],polarized IgG1
same,IgG2c response (Th1),[9],little induction
"CO[C@@H]1C[C@@H](C[C@H]2CC[C@H](C)[C@H]([C@@H](C)C(=O)O)O2)O[C@]2(O[C@](C)([C@H]3CC[C@@](C)([C@@H]4O[C@@H]([C@H]5O[C@@](O)(CO)[C@H](C)C[C@@H]5C)C[C@@H]4C)O3)C[C@H]2C)[C@@H]1C [nigericin, Nigericin]",Processing of pro-caspase-1 (p45) into p10 and p20,[3],minimal decrease of p45 with a notable increase of p20 or p10
same,Caspase-1 activation and Nlrp3 signaling: mature IL-1β in the supernatant,[4]; LPS-primed C57BL/6 macrophages (FIG. 4B),triggered caspase-1 activation and Nlrp3 signaling
same,Timing of lysosome impairment relative to cell death,[5]; nigericin-treated cells (FIG. 5A),occurred only after cell death induction
same,Degradation of cellular proteins (2D-DIGE),[7],did not trigger any apparent degradation
Boc-D-CMK,Effect of inhibitor on IL-1β secretion/release by all inducers tested,[1],blocked
same,Effect of inhibitor on alum and LLOMe-induced necrotic cell death,[2]; [10],no impact
same,Effect of inhibitor on cell death mediated by ATP and nigericin,[2]; [10],prevented
